The source of these data is patent US20100179225A1, “POI Prevention” (CYTOKINE PHARMASCIENCES, INC., priority 2008, published 2010).

One experiment deals with nitric oxide in serum. Kind of experiment: Nitrite and nitrate in serum after small intestinal transplantation (Nitrate/Nitrite Colorimetric Assay kit). Format: in vivo, Lewis rats. The following applies: 1 mg/kg i.v. The procedure: (§1) Syngeneic orthotopic small intestinal transplantation was performed in Lewis rats as previously described (Schwarz N T, Nakao A, Nalesnik M A, Kalff J C, Murase N, Bauer A J. Protective effects of ex vivo graft radiation and tacrolimus on syngeneic transplanted rat small bowel motility. Surgery 2002; 131: 413-423). […] Then the graft vascular bed was perfused with chilled UW solution (University of Wisconcin) and the intestinal lumen was irrigated with 50 ml cold 0.9% NaCl solution containing […]. neomycin sulfate (Uro Nebacetin N, Nycomed, Germany). The graft was stored in cold UW solution during the preparation of the recipient. An end-to-side anastomosis between the graft aorta and the recipient infra-renal aorta, and between the graft vein and recipient vena cava, was performed. Approximately 80% of the recipient intestine was removed and enteric continuity was restored by proximal and distal end-to-end intestinal anastomoses.
(§2) To investigate the effect of CPSI-2364 on postoperative small bowel ischemia/reperfusion injury and muscular function, CPSI-2364 (1 mg/kg bodyweight, solved in 2.5% mannitol) or vehicle (2.5% mannitol) were administered intravenously once to the donor and the recipient 90 minutes before the beginning of the organ retrieval operation as well as the transplantation procedure that was described above. […]

The subject of the next experiment is IL-6. Kind of experiment: Serum IL-6 after small intestinal transplantation (ELISA). The experiment is classed as in vivo, Lewis rats. Particulars: 1 mg/kg i.v. The procedure: as §1, §2
A general note: An ELISA detects its analyte on a solid surface through an enzyme-linked reagent.

A further experiment has as its system JNK/SAPK. Particulars: v-myc immortalized spleen derived macrophage cell line; Lowenberg et al. J Immunol 2005; cited from earlier work.

With `C/C(=N\NC(=N)N)c1cc(NC(=O)CCCCCCCCC(=O)Nc2cc(/C(C)=N/NC(=N)N)cc(/C(C)=N/NC(=N)N)c2)cc(/C(C)=N/NC(=N)N)c1` [Semapimod], the “nitric oxide levels within the serum” value in the experiment with nitric oxide in serum (3 hours after reperfusion) came out at 0.17 µmol/L; with nitric oxide in serum (18 hours after reperfusion) it was 1.69 µmol/L. In addition, the “release of IL-6 (serum)” value in the experiment on IL-6 (after 3 hours) was 345 pg/mL; in the experiment on IL-6 (after 18 hours), 35 pg/mL. The JNK/SAPK phosphorylation result in the experiment with JNK/SAPK is “reduce JNK/SAPK phosphorylation”.
